Assays:
EeAChE = EeAChE (Electrophorus electricus, UniProt O42275); assay: AChE inhibition and enzyme kinetics, Ellman assay; format: biochemical, electric eel; details: IC50 (μM) ± SD EeAChE, Ellman assay
hBACE-1 = hBACE-1 (Homo sapiens, UniProt P56817); assay: biochemical
eqBChE = eqBChE (Equus caballus, UniProt P81908); assay: BChE inhibition and enzyme kinetics, Ellman assay; format: biochemical, equine
eqBChE, sequence (P81908 whole entry): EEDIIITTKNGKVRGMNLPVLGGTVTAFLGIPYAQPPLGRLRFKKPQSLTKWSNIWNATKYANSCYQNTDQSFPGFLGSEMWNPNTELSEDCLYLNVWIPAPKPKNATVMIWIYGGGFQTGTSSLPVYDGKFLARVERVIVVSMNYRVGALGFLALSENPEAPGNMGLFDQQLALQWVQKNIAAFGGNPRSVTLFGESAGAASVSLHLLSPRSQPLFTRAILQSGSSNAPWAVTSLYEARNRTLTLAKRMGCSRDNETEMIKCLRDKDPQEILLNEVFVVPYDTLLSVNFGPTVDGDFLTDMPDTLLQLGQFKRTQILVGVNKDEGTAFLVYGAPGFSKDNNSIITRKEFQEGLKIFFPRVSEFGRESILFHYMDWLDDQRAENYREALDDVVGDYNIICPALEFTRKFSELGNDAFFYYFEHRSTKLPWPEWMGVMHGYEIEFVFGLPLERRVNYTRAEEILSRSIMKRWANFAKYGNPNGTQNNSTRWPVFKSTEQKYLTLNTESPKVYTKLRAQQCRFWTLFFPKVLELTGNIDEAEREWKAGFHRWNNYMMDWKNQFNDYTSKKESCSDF

EeAChE, sequence (O42275 24-633): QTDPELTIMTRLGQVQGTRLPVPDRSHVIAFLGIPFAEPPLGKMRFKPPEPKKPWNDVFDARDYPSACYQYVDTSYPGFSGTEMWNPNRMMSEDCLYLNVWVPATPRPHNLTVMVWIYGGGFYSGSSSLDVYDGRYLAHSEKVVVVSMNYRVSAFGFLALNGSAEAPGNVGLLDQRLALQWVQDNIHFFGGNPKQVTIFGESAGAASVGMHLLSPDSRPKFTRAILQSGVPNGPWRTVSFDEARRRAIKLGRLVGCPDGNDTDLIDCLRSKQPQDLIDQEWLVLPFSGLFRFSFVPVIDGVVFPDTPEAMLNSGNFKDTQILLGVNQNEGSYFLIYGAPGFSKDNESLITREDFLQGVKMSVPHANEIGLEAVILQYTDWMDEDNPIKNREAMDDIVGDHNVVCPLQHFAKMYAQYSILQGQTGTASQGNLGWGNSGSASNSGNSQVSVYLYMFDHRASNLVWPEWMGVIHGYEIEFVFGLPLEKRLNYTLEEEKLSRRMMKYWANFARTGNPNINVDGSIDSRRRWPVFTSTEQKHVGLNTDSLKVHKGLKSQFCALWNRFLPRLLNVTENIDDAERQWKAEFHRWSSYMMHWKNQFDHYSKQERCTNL
hBACE-1, sequence (P56817 46-501): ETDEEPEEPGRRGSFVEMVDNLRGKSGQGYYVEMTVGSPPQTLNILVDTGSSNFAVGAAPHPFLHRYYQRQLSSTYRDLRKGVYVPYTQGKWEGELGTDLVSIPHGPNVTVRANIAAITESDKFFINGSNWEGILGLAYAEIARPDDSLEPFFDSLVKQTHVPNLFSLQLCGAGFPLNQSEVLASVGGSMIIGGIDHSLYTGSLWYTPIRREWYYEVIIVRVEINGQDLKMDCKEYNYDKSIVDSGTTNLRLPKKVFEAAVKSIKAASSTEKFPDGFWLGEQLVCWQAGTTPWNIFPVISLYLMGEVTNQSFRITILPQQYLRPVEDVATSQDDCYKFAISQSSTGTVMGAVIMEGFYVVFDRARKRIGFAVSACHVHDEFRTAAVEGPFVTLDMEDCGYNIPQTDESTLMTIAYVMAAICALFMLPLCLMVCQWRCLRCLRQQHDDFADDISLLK

| SMILES | IC50 (EeAChE) [µM] | IC50 (hBACE-1) [µM] | IC50 (eqBChE) [µM] |
| --- | --- | --- | --- |
| COc1cc(Cn2cc(COc3ccc4ccc(=O)oc4c3)nn2)cc(OC)c1 [19b, 7-((1-(3,5-Dimethoxybenzyl)-1H-1,2,3-triazol-4-yl)methoxy)-2H-chromen-2-one] | 59.7 ± 0.62 | 132 ± 2.02 | 63.2 ± 2.44 |
| COc1cc2c(C)cc(=O)oc2cc1O [compound 14, 7-Hydroxy-6-methoxy-4-methyl-2H-chromen-2-one] | 89.1 ± 3.51 | 91.1 ± 2.41 | 146 ± 4.91 |
| COc1cc2c(C)cc(=O)oc2cc1OCc1cn(Cc2ccccc2OC(F)(F)F)nn1 [16d, 6-Methoxy-4-methyl-7-((1-(2-(trifluoromethoxy)benzyl)-1H-1,2,3-triazol-4-yl)methoxy)-2H-chromen-2-one] | 167 ± 2.45 | 167.6 ± 1.4 | 141 ± 0.6 |
| O=c1cc(OCc2cn(Cc3ccccc3OC(F)(F)F)nn2)c2ccccc2o1 [8k, 4-((1-(2-(Trifluoromethoxy)benzyl)-1H-1,2,3-triazol-4-yl)methoxy)-2H-chromen-2-one] | 9.13 ± 0.73 | 18 ± 1.59 | 9.95 ± 0.89 |
| Cc1cc(=O)oc2cc(O)c(O)cc12 [compound 11, 4-methyl-6,7-dihydroxycoumarin] | 68.1 ± 4.05 | 105 ± 3.48 | 148 ± 5.46 |
| Cc1cc(=O)oc2cc(OCc3cn(Cc4ccccc4C(F)(F)F)nn3)c(OCc3cn(Cc4ccccc4C(F)(F)F)nn3)cc12 [13c, 4-Methyl-6,7-bis((1-(2-(trifluoromethyl)benzyl)-1H-1,2,3-triazol-4-yl)methoxy)-2H-chromen-2-one] | 154.7 ± 1.42 | 139.4 ± 1 | 82.5 ± 1.41 |
| O=c1cc(OCc2cn(Cc3ccccc3F)nn2)c2ccccc2o1 [8e, 4-((1-(2-Fluorobenzyl)-1H-1,2,3-triazol-4-yl)methoxy)-2H-chromen-2-one] | 89.2 ± 1.88 | 111.2 ± 0.63 | 62.3 ± 1.2 |
| COc1cccc(Cn2cc(COc3cc(=O)oc4ccccc34)nn2)c1 [8n, 4-((1-(3-Methoxybenzyl)-1H-1,2,3-triazol-4-yl)methoxy)-2H-chromen-2-one] | 11.4 ± 1.16 | 126 ± 4.18 | 140 ± 6.25 |
| O=c1cc(OCc2cn(Cc3ccc(F)cc3)nn2)c2ccccc2o1 [8g, 4-((1-(4-Fluorobenzyl)-1H-1,2,3-triazol-4-yl)methoxy)-2H-chromen-2-one] | 194 ± 2.19 | 24.2 ± 1.98 | 249 ± 3.1 |
| COc1cccc(Cn2cc(COc3ccc4ccc(=O)oc4c3C(C)=O)nn2)c1 [10a, 8-Acetyl-7-((1-(3-methoxybenzyl)-1H-1,2,3-triazol-4-yl)methoxy)-2H-chromen-2-one] | 8.36 ± 1.29 | 119 ± 2.49 | 7.4 ± 0.94 |
| O=c1cc(OCc2cn(Cc3ccccc3Cl)nn2)c2ccccc2o1 [8b, 4-((1-(2-Chlorobenzyl)-1H-1,2,3-triazol-4-yl)methoxy)-2H-chromen-2-one] | 68.7 ± 0.71 | 186.6 ± 1.21 | 42.2 ± 0.78 |
| O=c1ccc2ccc(OCc3cn(Cc4ccccc4OC(F)(F)F)nn3)cc2o1 [19d, 7-((1-(2-(Trifluoromethoxy)benzyl)-1H-1,2,3-triazol-4-yl)methoxy)-2H-chromen-2-one] | 52.54 ± 0.4 | 172.8 ± 0.66 | 97.2 ± 1.29 |
| O=c1cc(OCc2cn(Cc3cccc(F)c3)nn2)c2ccccc2o1 [8f, 4-((1-(3-Fluorobenzyl)-1H-1,2,3-triazol-4-yl)methoxy)-2H-chromen-2-one] | 232.8 ± 2.31 | 22.3 ± 1.54 | 236 ± 3.6 |
| Cc1ccccc1Cn1cc(COc2cc(=O)oc3ccccc23)nn1 [8m, 4-((1-(2-Methylbenzyl)-1H-1,2,3-triazol-4-yl)methoxy)-2H-chromen-2-one] | 210.7 ± 1.83 | 162 ± 1.85 | 172 ± 1.98 |
| O=c1cc(OCc2cn(Cc3ccc(OC(F)(F)F)cc3)nn2)c2ccccc2o1 [8l, 4-((1-(4-(Trifluoromethoxy)benzyl)-1H-1,2,3-triazol-4-yl)methoxy)-2H-chromen-2-one] | 45.4 ± 1.4 | 132.9 ± 1.08 | 158 ± 1.98 |
| CC(=O)c1c(OCc2cn(Cc3ccccc3C(F)(F)F)nn2)ccc2ccc(=O)oc12 [10c, 8-Acetyl-7-((1-(2-(trifluoromethyl)benzyl)-1H-1,2,3-triazol-4-yl)methoxy)-2H-chromen-2-one] | 173 ± 1.89 | 139 ± 1.47 | 44.6 ± 1.84 |
| O=c1cc(OCc2cn(Cc3cccc(Cl)c3)nn2)c2ccccc2o1 [8c, 4-((1-(3-Chlorobenzyl)-1H-1,2,3-triazol-4-yl)methoxy)-2H-chromen-2-one] | 62.6 ± 2.4 | 24.8 ± 1.49 | 61.9 ± 3.66 |
| COc1cc(Cn2cc(COc3cc4oc(=O)cc(C)c4cc3OC)nn2)cc(OC)c1 [16b, 7-((1-(3,5-Dimethoxybenzyl)-1H-1,2,3-triazol-4-yl)methoxy)-6-methoxy-4-methyl-2H-chromen-2-one] | 151 ± 5.05 | 9.06 ± 0.88 | 191.2 ± 1.13 |
| COc1cccc(Cn2cc(COc3cc4oc(=O)cc(C)c4cc3OCc3cn(Cc4cccc(OC)c4)nn3)nn2)c1 [13a, 6,7-Bis((1-(3-methoxybenzyl)-1H-1,2,3-triazol-4-yl)methoxy)-4-methyl-2H-chromen-2-one] | 130.7 ± 0.45 | 129 ± 1.49 | 51.7 ± 1.42 |
| COc1cccc(Cn2cc(COc3cc4oc(=O)cc(C)c4cc3OC)nn2)c1 [16a, 6-Methoxy-7-((1-(3-methoxybenzyl)-1H-1,2,3-triazol-4-yl)methoxy)-4-methyl-2H-chromen-2-one] | 164 ± 1.84 | 138.4 ± 1.02 | 95.8 ± 1.12 |
| O=c1cc(OCc2cn(Cc3c(Cl)cccc3Cl)nn2)c2ccccc2o1 [8d, 4-((1-(2,6-Dichlorobenzyl)-1H-1,2,3-triazol-4-yl)methoxy)-2H-chromen-2-one] | 59.4 ± 2.71 | 106 ± 1.38 | 40.3 ± 0.93 |
| O=c1cc(O)c2ccccc2o1 [compound 5, 4-hydroxycoumarin] | 139 ± 1.85 | 169 ± 7.67 | 167 ± 5.63 |
| CC(=O)c1c(OCc2cn(Cc3ccccc3OC(F)(F)F)nn2)ccc2ccc(=O)oc12 [10d, 8-Acetyl-7-((1-(2-(trifluoromethoxy)benzyl)-1H-1,2,3-triazol-4-yl)methoxy)-2H-chromen-2-one] | 139 ± 1.64 | 142 ± 1.59 | 170 ± 1.76 |
| C[n+]1c2ccccc2cc2[n-]c3ccccc3c21 [cryptolepine, reference compound] | 0.33 ± 0.2 |  | 0.61 ± 0.3 |
| O=c1cc(OCc2cn(Cc3ccccc3)nn2)c2ccccc2o1 [8a, 4-((1-Benzyl-1H-1,2,3-triazol-4-yl)methoxy)-2H-chromen-2-one] | 151 ± 3.14 | 72.9 ± 2.4 | 212 ± 2.55 |
| O=c1cc(OCc2cn(Cc3c(F)cccc3F)nn2)c2ccccc2o1 [8h, 4-((1-(2,6-Difluorobenzyl)-1H-1,2,3-triazol-4-yl)methoxy)-2H-chromen-2-one] | 73.89 ± 0.63 | 135 ± 1.9 | 66.7 ± 1.37 |
| O=c1ccc2ccc(O)cc2o1 [compound 17, 7-hydroxycoumarin] |  | 175 ± 4.37 |  |
| Cc1cc(=O)oc2cc(OCc3cn(Cc4ccccc4OC(F)(F)F)nn3)c(OCc3cn(Cc4ccccc4OC(F)(F)F)nn3)cc12 [13d, 4-Methyl-6,7-bis((1-(2-(trifluoromethoxy)benzyl)-1H-1,2,3-triazol-4-yl)methoxy)-2H-chromen-2-one] | 176 ± 10.2 | 20.7 ± 0.93 |  |
